# Experimental data: paper PMC5641083, “Blockage of FOXP3 transcription factor dimerization and FOXP3/AML1 interaction inhibits T regulatory cell activity: sequence optimization of a peptide inhibitor” (Oncotarget, 2017)
# Where a SMILES comes first, the peptide text is derived from it. [ ]: non-standard residue; d: D form.
# Key:
# [1] = Metabolic stability in mouse liver microsomes; assay type: in vitro ADME; settings: 1 μM, estimated by first order kinetics
# Procedure: (§1) Metabolic stability was measured by Wuxi AppTech (Shanghai, China). Briefly, peptides (1 μM, 5% MeOH in potassium phosphate buffer) were incubated with human (catalogue no. 452161 from BD Gentest) and mouse (catalogue no. M1000, Xenotech) liver microsomes at 37°C for 10 min. Liver microsomes were at a final assay concentration of 0.7 mg protein/mL. The reaction was started by the addition of 90 μL of NADP cofactor solution and stopped by the addition of 300 μL of stop solution (acetonitrile at 4°C, including 100 ng/mL tolbutamide as an internal standard) after 20 min of incubation. The samples were shaken for 5 min and then centrifuged for 20 min at 1500 g. A 100 μL aliquot of the supernatant was transferred to eight new 96-well plates with 300 μL of HPLC water and centrifuged at 1500 g for LC-MS/MS analysis (Shimadzu LC 10-AD−API 4000). An injection volume of 10 μL was added to a Phenomenex Synergi C18 column eluting with formic acid in water or acetonitrile at a flow rate of 800 μL/min. The percent loss of parent compound was calculated from the peak area ratio of the analyte/internal standard. Compounds and positive controls were tested in duplicate.
# [2] = system: CD4+CD25-ve splenocytes; assay: Effector T cells alone stimulated with anti-CD3: proliferation, IL-2 and IFN-γ; assay type: cell-based; settings: anti-CD3 stimulation, no Treg
# Source text: (§2) FOXP3 is critical for the development and function of Tregs, but also, FOXP3 can be transiently expressed in effector T cells after TCR stimulation leading to hyporesponsiveness of the effector T cell. […] We speculate that the Foxp3 inhibitory peptides may work at two levels: (i) reducing Treg function and (ii) releasing the brake of FOXP3 transient expression on effector T cells. Thus, we studied the effect of CM-1315 in T cell proliferation and IL-2 and IFN-γ production in effector T cells in response to anti-CD3 stimulation. The original P60, the optimized peptide CM-1315 and a control peptide were tested. […] We also studied the effect of the peptides directly in Tregs. Thus, freshly isolated Treg cells were pre-treated with the peptides for 24 h, and after extensive washing, they were used in conventional Treg suppression assay in coculture with effector T cells and anti-CD3 stimulation.
# (§3) Supplementary Figure 4: Effect of Foxp3 inhibitory peptides in effector T cells alone. […] T cell proliferation (A) and IL-2 and IFN-γ (B and C) production in response to anti-CD3 stimulation was measured by 3H-thymidine incorporation and by ELISA respectively.
# (§4) Supplementary Figure 5: Effect of FOXP3 inhibitory peptides in Treg cells. […] T cell proliferation was measured by 3H-thymidine incorporation assay. […]
# [3] = system: Treg cells; assay: Treg pre-treated with peptide, then Treg suppression assay; assay type: cell-based; settings: Treg incubated with peptide at 20 μM for 24 hours, washed
# Source text: as §2, §3, §4
# [4] = Metabolic stability in human liver microsomes; assay type: in vitro ADME; settings: 1 μM, estimated by first order kinetics
# Procedure: as §1
# [5] = system: CT26 tumor cells; assay: AH1 vaccination and CT26 tumor challenge; assay type: in vivo, BALB/c mice; settings: AH1 in IFA, peptide 10 nanomol/mice/day i.p. 10 days, challenge 10^6 CT26 cells s.c. day 10
# Procedure: In those experiments, BALB/c mice were immunized with peptide AH1 emulsified in IFA and treated daily with saline or with 50 nanomol/mice/day of peptide P60 i.p. from day 0 to day 9 after immunization. To study the efficacy of CM-1315, our optimized version of P60, mice immunized with AH1 were treated with 10 nanomol/mice/day of P60 or CM-1315 and challenged at day 10 by s.c. injection with 10^6 CT26 tumor cells (instead of 5 × 10^5 cells used in our previous study). As control, groups of mice were injected with AH1 alone or left untreated.
# For tumor rejection experiments, Hepa-129 cells (10^6 cells/mouse), were injected subcutaneously (sc) in C3H/HeN mice (n = 6). Ten days later, when the tumor reached 5 mm in diameter, mice were randomly divided into different experimental groups. A group of mice were treated i.p. with anti-PD1 antibodies (50 μg/mouse). Antibody administration was repeated one week after this first administration. A group of mice treated with anti-PD1 also received the cyclic peptide CM-1215 from days 10 to 20 (50 μg/mice/day). Tumor size, presented as the average of two perpendicular diameters (millimetres), was measured at regular intervals. Mice were sacrificed when the mean tumor diameter was greater than 20 mm. […] Tumor size was monitored twice a week with a calliper and it was expressed according to the formula V = (length × width^2)/2. […]
# [6] = system: AH1-specific IFN-γ producing cells; assay: AH1 immunization in CD25+ depleted mice, IFN-γ ELISPOT; assay type: in vivo; settings: mice depleted of CD25+ T cells, CM-1315 day 1 to day 7
# Source text: We also studied the effect of CM-1315 peptide in vivo to improve the immune response after immunization with AH1 peptide in naïve mice and in mice depleted of CD25+ T cells. In this experiment, depletion of CD25+ T cells improved the number of AH1-specific IFN-γ producing cells.
# Supplementary Figure 6: In vivo the effect of CM-1315 peptide to improve the immunogenicity of AH1 peptide vaccine.
# AH1 peptide, encompassing a cytotoxic T cell epitope for H-2Ld MHC class I molecule, was emulsified in Incomplete Freund adjuvant as previously described and used to immunize groups of naïve mice and in mice depleted of CD25+ T cells (n = 4). A group of CD25 depleted mice was immunized with AH1 and treated with CM-1315 peptide from day 1 to day 7 after immunization. Ten days after, immune response against AH1 was measured by ELISPOT assay to quantify the number of IFN-γ producing cells.
# (1 picture or pasted object on this page, not shown here)
compound,measurement,setting,value
CSCC[C@@H]1NC(=O)[C@H](C)NC(=O)[C@H](Cc2ccccc2)NC(=O)[C@H](Cc2ccccc2)NC(=O)[C@@H]2CCCN2C(=O)[C@H](Cc2c[nH]c3ccccc23)NC(=O)[C@H](CCSC)NC(=O)[C@H](CCCCN)NC(=O)[C@H](CCCNC(=N)N)NC(=O)[C@H](Cc2ccccc2)NC(=O)[C@H](C)NC(=O)[C@H](CCC(N)=O)NC(=O)[C@H](Cc2ccccc2)NC(=O)[C@@H](C)NC(=O)[C@H](CCCNC(=N)N)NC1=O [CM-1315] (cyclo(R[dA]FQAFRKMWPFFAM)),half-life,[1],~1 h
same,"T cell proliferation and IL-2, IFN-γ production of effector T cells (in words)",[2],more active than P60
same,Inhibition of suppressive activity of pre-treated Treg (in words),[3],able to inhibit significantly the suppressive activity of Treg
same,half-life,[4],~1 h
same,Protection against CT26 tumor challenge (in words),[5],remained protected against challenge with CT26 tumor cells
same,Number of AH1-specific IFN-γ producing cells (in words),[6],significantly improved this response
